{
  "source": "ChEMBL document CHEMBL1201862",
  "about": "“PubChem BioAssay data set” (2004)",
  "key": {"[1]": {"biological_target": "T1, Calpain-2 catalytic subunit (Sus scrofa, UniProt P43367)", "T1 sequence (P43367 whole entry)": "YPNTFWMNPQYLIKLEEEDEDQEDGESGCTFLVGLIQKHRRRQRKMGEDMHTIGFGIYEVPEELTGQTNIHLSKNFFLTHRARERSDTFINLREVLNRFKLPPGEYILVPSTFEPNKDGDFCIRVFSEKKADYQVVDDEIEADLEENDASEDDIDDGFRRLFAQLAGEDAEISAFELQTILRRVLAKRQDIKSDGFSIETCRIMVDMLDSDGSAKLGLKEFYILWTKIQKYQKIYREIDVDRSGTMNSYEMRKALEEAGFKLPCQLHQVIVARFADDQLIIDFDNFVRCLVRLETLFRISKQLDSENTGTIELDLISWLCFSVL", "test": "pig calpain II inhibitor potency, dose response, biochemical, fluorogenic peptide substrate (AID 1420)", "type": "functional"}, "Ephrin type-A receptor 4": {"biological_target": "Ephrin type-A receptor 4 (Mus musculus, UniProt Q03137)", "sequence (Q03137 whole entry)": "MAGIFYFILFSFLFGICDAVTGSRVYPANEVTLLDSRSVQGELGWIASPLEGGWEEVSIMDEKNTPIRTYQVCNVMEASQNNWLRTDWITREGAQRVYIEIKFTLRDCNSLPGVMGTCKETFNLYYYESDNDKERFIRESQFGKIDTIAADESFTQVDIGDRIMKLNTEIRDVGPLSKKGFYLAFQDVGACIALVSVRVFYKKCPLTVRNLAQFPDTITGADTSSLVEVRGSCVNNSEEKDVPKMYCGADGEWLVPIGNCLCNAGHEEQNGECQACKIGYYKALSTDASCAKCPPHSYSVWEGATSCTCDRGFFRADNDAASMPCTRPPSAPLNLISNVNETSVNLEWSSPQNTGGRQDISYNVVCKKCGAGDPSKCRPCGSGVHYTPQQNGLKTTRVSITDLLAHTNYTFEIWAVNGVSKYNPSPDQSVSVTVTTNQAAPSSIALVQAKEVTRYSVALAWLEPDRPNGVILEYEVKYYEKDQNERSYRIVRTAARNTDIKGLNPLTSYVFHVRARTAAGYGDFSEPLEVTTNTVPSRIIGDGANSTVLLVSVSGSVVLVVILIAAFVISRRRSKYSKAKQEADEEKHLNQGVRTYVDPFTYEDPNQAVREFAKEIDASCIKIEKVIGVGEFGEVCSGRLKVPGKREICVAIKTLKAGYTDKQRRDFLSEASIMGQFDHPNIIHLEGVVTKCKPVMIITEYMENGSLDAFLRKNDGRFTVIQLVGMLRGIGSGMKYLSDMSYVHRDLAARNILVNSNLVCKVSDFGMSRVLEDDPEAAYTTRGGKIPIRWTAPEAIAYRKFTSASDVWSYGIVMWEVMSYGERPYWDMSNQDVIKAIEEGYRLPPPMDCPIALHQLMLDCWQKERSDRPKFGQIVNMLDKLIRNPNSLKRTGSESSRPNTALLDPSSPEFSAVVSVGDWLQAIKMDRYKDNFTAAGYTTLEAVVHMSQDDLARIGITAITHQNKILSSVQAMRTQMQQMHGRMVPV", "test": "inhibitors of EphA4 binding to KYL peptide, primary screen, biochemical, colorimetric, mouse EphA4 (AID 689)", "type": "functional"}, "[2]": {"test": "Vero cell cytotoxicity, dose response, cytotoxicity control for Vif-APOBEC3G degradation inhibitor project, Vero cells (AID 1117358)", "type": "functional", "conditions": "Human immunodeficiency virus 1, Vero"}, "[3]": {"biological_target": "T2, Polyadenylate-binding protein 1 (Homo sapiens, UniProt P11940)", "T2 sequence (P11940 whole entry)": "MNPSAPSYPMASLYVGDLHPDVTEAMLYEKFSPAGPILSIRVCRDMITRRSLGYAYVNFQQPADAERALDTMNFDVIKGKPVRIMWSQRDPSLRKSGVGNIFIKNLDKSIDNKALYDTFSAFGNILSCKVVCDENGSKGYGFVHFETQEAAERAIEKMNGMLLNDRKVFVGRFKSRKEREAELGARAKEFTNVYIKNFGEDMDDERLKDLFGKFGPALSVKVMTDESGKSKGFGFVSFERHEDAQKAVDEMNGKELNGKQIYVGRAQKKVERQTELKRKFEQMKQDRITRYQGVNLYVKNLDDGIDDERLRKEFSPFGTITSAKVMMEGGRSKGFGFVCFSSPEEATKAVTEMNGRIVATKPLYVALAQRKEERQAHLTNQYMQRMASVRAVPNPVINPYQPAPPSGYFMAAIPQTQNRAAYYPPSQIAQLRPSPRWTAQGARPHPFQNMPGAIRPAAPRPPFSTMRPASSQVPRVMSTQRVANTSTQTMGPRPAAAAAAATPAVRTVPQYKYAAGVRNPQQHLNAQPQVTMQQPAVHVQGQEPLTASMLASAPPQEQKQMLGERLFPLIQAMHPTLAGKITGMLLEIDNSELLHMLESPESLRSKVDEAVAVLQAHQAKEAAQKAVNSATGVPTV", "test": "PABP1 MLLE–PAM2 interaction inhibitors, dose response, miRNA deadenylation inhibitor project, biochemical, fluorescence polarization, Cy5-PAM2 peptide, secondary (AID 602260)", "type": "functional", "conditions": "read-out: IC50_Mean"}, "[4]": {"biological_target": "T2, Polyadenylate-binding protein 1", "test": "PABP1 MLLE–PAM2 binding inhibitor potency, dose response, biochemical, fluorescence polarization, FITC-PAM2 peptide (AID 602259)", "type": "functional", "conditions": "read-out: IC50_Mean"}, "Caspase-6": {"biological_target": "Caspase-6 (Homo sapiens, UniProt P55212)", "sequence (P55212 24-179 limits assumed)": "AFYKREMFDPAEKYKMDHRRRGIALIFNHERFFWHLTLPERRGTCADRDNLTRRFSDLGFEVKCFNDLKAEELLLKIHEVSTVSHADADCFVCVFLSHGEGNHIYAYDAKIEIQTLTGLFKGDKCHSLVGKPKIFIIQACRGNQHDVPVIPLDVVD", "sequence (P55212 194-293 limits assumed)": "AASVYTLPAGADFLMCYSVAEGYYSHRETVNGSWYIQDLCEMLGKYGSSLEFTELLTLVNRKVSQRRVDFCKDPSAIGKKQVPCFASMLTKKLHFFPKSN", "test": "human caspase-6 inhibitors, dose response, biochemical, VEID-R110 fluorescence, cherry-pick (AID 720632)"}, "Genome polyprotein": {"biological_target": "Genome polyprotein (dengue virus type 2, UniProt P29990)", "sequence (P29990 2492-3391 limits assumed)": "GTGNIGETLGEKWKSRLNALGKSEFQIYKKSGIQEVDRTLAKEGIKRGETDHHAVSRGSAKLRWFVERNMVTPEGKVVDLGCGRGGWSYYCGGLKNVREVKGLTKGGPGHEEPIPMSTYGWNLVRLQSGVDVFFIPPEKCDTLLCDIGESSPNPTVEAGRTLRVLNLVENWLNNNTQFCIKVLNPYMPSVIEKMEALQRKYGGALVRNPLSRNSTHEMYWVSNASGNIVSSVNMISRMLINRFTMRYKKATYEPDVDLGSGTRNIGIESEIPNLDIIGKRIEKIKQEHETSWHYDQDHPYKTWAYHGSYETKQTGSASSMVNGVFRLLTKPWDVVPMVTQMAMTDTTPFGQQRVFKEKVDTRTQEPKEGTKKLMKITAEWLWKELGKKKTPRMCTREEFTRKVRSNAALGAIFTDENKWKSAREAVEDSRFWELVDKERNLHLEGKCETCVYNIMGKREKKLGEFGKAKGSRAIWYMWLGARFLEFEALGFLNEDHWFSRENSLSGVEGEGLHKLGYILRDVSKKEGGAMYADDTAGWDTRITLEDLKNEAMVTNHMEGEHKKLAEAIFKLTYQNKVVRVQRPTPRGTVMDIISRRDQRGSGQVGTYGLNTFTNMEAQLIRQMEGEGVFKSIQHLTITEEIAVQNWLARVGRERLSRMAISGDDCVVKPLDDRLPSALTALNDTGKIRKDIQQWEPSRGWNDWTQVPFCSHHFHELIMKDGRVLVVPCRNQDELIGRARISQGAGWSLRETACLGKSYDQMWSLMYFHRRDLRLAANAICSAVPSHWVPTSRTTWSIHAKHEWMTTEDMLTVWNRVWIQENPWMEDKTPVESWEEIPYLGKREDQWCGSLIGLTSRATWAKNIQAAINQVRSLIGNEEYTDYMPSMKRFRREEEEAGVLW", "test": "Dengue-2 NS5 methyltransferase inhibitors, primary screen, biochemical, confirmation dose response (AID 588689)", "type": "functional"}, "[5]": {"biological_target": "T3, Methionyl-tRNA synthetase, putative (Trypanosoma brucei brucei, UniProt Q38C91)", "T3 sequence (Q38C91 whole entry)": "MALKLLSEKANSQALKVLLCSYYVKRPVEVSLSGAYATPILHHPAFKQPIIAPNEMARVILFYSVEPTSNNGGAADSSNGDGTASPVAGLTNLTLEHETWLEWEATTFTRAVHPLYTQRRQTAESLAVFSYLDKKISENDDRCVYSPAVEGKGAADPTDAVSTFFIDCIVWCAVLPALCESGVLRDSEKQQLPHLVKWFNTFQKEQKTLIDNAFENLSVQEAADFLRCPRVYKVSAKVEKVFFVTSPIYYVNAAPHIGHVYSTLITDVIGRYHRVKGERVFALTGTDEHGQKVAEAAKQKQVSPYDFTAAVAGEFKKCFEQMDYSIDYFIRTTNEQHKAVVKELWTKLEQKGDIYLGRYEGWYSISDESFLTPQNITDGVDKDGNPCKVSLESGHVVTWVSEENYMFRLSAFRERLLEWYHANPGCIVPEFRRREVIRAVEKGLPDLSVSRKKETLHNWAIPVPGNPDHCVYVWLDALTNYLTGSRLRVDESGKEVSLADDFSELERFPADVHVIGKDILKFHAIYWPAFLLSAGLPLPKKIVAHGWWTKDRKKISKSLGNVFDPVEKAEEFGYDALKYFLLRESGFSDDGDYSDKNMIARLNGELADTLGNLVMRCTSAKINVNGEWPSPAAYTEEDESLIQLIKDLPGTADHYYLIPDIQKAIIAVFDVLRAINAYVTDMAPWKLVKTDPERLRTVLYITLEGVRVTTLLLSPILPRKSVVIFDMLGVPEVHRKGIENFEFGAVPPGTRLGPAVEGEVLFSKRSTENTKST", "type": "functional, Trypanosoma brucei brucei strain 927/4 GUTat10.1"}, "[6]": {"test": "Counterscreen for inhibitors of Trypanosoma brucei methionyl tRNA synthetase (MetRS): Luminescence-based cell-based high throughput dose response assay to identify compounds that are cytotoxic to Jurkat human T lymphocyte cells.", "type": "functional"}, "[7]": {"test": "Late stage counterscreen for inhibitors of Trypanosoma brucei methionyl tRNA synthetase (MetRS): Luminescence-based cell-based high throughput dose response assay to identify compounds that are cytotoxic to Jurkat human T lymphocyte cells.", "type": "functional"}, "[8]": {"biological_target": "T3, Methionyl-tRNA synthetase, putative", "type": "functional, Trypanosoma brucei brucei strain 927/4 GUTat10.1", "remark": "listed apart in the source"}, "[9]": {"biological_target": "T4, NAD-dependent protein deacylase sirtuin-5, mitochondrial (Homo sapiens, UniProt Q9NXA8)", "T4 sequence (Q9NXA8 whole entry)": "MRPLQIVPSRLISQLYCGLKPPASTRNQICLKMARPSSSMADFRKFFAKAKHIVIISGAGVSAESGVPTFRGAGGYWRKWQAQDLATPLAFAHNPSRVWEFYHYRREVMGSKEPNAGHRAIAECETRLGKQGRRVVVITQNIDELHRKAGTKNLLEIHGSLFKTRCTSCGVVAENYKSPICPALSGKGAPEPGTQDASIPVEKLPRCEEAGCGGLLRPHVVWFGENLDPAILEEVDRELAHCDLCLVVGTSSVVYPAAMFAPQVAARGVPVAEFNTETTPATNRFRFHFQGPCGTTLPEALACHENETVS", "test": "SIRT5 desuccinylase inhibitors, dose response, biochemical, fluorescence imaging, cherry-pick, set 5 (AID 720591);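 also: desuccinylation of succinyl peptide AMC substrate read as fluorescence after trypsin release; potency of inhibitors that lower fluorescence and may act on trypsin instead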"}, "[10]": {"biological_target": "T4, NAD-dependent protein deacylase sirtuin-5, mitochondrial", "test": "SIRT5 deacylase inhibitors, dose response, biochemical, fluorescence imaging, cherry-pick, set 6 (AID 720597)"}, "[11]": {"biological_target": "T5, Tyrosine-protein phosphatase non-receptor type 7 (Homo sapiens, UniProt P35236)", "T5 sequence (P35236 whole entry)": "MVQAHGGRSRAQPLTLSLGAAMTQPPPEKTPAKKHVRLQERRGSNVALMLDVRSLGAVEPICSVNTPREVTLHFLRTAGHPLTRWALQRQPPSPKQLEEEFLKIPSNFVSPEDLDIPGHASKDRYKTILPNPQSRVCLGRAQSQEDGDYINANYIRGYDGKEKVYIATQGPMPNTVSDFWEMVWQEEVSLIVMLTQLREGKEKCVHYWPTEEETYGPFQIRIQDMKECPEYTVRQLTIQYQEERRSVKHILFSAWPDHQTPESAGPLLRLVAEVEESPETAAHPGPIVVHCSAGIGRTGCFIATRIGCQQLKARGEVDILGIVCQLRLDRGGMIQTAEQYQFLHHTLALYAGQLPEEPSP", "test": "inhibitors of human HePTP phosphatase, […], biochemical, absorbance, leukemia target (AID 521)", "type": "functional"}, "Bcl-2-like protein 10": {"biological_target": "T6, Bcl-2-like protein 10 (Homo sapiens, UniProt Q9HD36)", "T6 sequence (Q9HD36 whole entry)": "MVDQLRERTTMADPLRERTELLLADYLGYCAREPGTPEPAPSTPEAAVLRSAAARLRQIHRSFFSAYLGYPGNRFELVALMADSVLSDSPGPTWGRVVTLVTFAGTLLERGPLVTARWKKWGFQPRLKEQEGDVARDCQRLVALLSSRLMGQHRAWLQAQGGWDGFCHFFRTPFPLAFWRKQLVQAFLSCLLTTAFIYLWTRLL", "test": "displacers of TR3 peptide from Bcl-B, primary screen, selectivity assay for Bfl-1 inhibitor project, biochemical, fluorescence polarization, FITC-TR3 peptide (AID 748);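 also: fluorescence polarization from a fluorescein-labelled TR3 peptide binding purified Bcl-B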"}},
  "note": "Active and inactive are the calls of the source.",
  "data": [
    {"compound": "COc1ccc(N(C(=O)c2ccco2)S(=O)(=O)c2cc(Cl)c(Cl)cc2Cl)cc1", "values": [
      {"measurement": "IC50", "setting": "[1]", "result": "11 µM (not active)"},
      {"measurement": "IC50", "setting": "Ephrin type-A receptor 4", "result": "> 100 µM (not active)"},
      {"measurement": "CC50", "setting": "[2]", "result": "> 40 µM (active)"}
    ]},
    {"compound": "O=[N+]([O-])c1cc2ccccc2c(O)c1O", "values": [
      {"measurement": "IC50", "setting": "[3]", "result": "> 66 µM (inactive)"},
      {"measurement": "IC50", "setting": "[4]", "result": "> 66 µM (inactive)"},
      {"measurement": "AC50", "setting": "Caspase-6", "result": "13.4 µM (active)"},
      {"measurement": "IC50", "setting": "Genome polyprotein", "result": "7.79 µM (active)"}
    ]},
    {"compound": "COc1ccccc1-n1c(SCC(=O)Nc2ccc(Cl)cc2)nc(=O)c(Cc2ccccc2)c1O", "values": [
      {"measurement": "IC50", "setting": "[5]", "result": "5.07 µM (active)"},
      {"measurement": "IC50", "setting": "[6]", "result": "74.5 µM (inactive)"},
      {"measurement": "IC50", "setting": "[7]", "result": "77.1 µM (inactive)"},
      {"measurement": "IC50", "setting": "[8]", "result": "5.59 µM (active)"}
    ]},
    {"compound": "O=C(O)C1=C2C(=O)Nc3cccc(c32)C2(C1)C(=O)Nc1ccccc12", "note": "(stereo unspecified)", "values": [
      {"measurement": "AC50", "setting": "[9]", "result": "25.1 µM (active)"}
    ]},
    {"compound": "Cc1ccc(S(=O)(=O)Nc2ccc3c(c2)C(=O)N([C@@H](C)CO)C[C@@H](C)[C@H](CN(C)S(=O)(=O)c2ccc(F)cc2)OCCCC[C@@H](C)O3)cc1", "values": [
      {"measurement": "AC50", "setting": "[10]", "result": "> 30 µM (inactive)"}
    ]},
    {"compound": "O=C(c1ccccc1F)N1C[C@H]2[C@@H](c3ccccc31)[C@@H](CO)N2CC1CCCCC1", "values": [
      {"measurement": "AC50", "setting": "[10]", "result": "> 30 µM (inactive)"}
    ]},
    {"compound": "C/C(N)=C(/C#N)C(=O)CSc1nnc(Nc2c(C)cccc2C)s1", "values": [
      {"measurement": "IC50", "setting": "[11]", "result": "30.2 µM (active)"},
      {"measurement": "IC50", "setting": "Bcl-2-like protein 10", "result": "17.2 µM (active)"}
    ]}
  ]
}
